In article PMC12238723, “Phase I Clinical Trial of CVL218, a Novel PARP1/2 Inhibitor, in Patients with Advanced Solid Tumors” (MedComm, 2025):

Test system: patients with advanced solid tumors
Assay: Treatment-related adverse events (CTCAE v5.0), phase I dose escalation
Format: in vivo
From the text: This study was a single‐arm, dose‐escalation phase I trial conducted in Sun Yat‐sen University Cancer Center in China. This study assessed CVL218 in patients with histologically or cytologically confirmed advanced solid tumors who were in PD after standard therapeutic regimens or lacked standard treatment options. Inclusion criteria included: age 18–75 years; with at least one measurable and evaluable target lesion per Response Evaluation Criteria in Solid Tumors 1.1 (RECIST 1.1); ECOG performance status of 0 or 1; adequate hematological, renal, cardiac, and hepatic functions and a life expectancy ≥12 weeks. Key exclusion criteria included prior usage of PARP inhibitors; allergic to the research drug or its components; with active, unstable systemic diseases or active, uncontrolled infection; a history of other malignancies within 5 years, and pregnant or lactating women.
CVL218 was administered orally, and this dose‐escalation trial included nine dose levels: 100 mg QD (50 mg BID), 200 mg QD (100 mg BID), 400 mg QD (200 mg BID), 700 mg QD (350 mg BID), 1000 mg QD (500 mg BID), 1200 mg QD (600 mg BID), 1400 mg QD (700 mg BID), 1700 mg QD (850 mg BID), and 2000 mg QD (1000 mg BID). Patients enrolled in the study received a single oral dose on the first day, followed by continuous multiple dosing (twice a day taking 12 h apart) after 72 h, with the treatment cycle lasting 4 weeks. The period during which patients received a single dose is designated as cycle 0 (C0), lasting 72 h. After this period, patients begin multiple dosing, referred to as cycle 1 (C1). An initial accelerated titration design was employed for the three lowest dose groups, and the “3+3” design was applied starting with the 300 mg BID cohort.
The primary objectives were to assess safety and tolerability as well as to determine the MTD, DLT, and dose recommended for further study. DLT was defined as any of the following events occurring during cycle 0 (including 72 h wash‐out period after a single dose) and cycle 1 per Common Terminology Criteria for Adverse Events (CTCAE) version 5.0: grade 4 anemia; grade 4 neutropenia; grade 3 neutropenia with fever ≥38.5°C; grade 4 thrombocytopenia; grade 3 thrombocytopenia associated with bleeding; grade ≥2 neurotoxicity; any other grade ≥3 nonhematological toxicities (excluding alopecia). The secondary objectives were to assess the PK and preliminary efficacy of CVL218.
Subjects who received at least one dose of CVL218 with postadministration safety records were included in safety analysis set. Subjects who received at least one dose of CVL218 with at least one evaluable PK parameter were included in PK analysis set. Per‐protocol set were used for efficacy analysis. Descriptive statistics of safety were presented per CTCAE v5.0. The PK parameters T max and T 1/2 were shown as the median (min, max) and mean ± SD, respectively. A two‐sided p < 0.05 was considered to indicate statistical significance. Statistical analysis was performed by using GraphPad prism 8.0.2 and R‐4.3.3.

CNCc1ccc(-c2cc3cc(F)cc(C(N)=O)c3o2)cc1.Cl [CVL218]
Palpitations (350 mg BID, ≥G3): 0 n (%)
Protein urine present (350 mg BID, ≥G3): 0 n (%)
Proteinuria (350 mg BID, ≥G3): 0 n (%)
Rash (350 mg BID, ≥G3): 0 n (%)
Renal & urinary disorders (350 mg BID, ≥G3): 0 n (%)
Renal failure (350 mg BID, ≥G3): 0 n (%)
Reproductive disorders (350 mg BID, ≥G3): 0 n (%)
Skin disorders (350 mg BID, ≥G3): 0 n (%)
Urinary occult blood positive (350 mg BID, ≥G3): 0 n (%)
Vomiting (350 mg BID, ≥G3): 0 n (%)
WBC count decreased (350 mg BID, ≥G3): 0 n (%)
WBC count increased (350 mg BID, ≥G3): 0 n (%)
Infusion site pain (500 mg BID, ALL): 0 n (%)
WBC count increased (500 mg BID, ALL): 1 (25) n (%)
ALT increased (500 mg BID, ≥G3): 0 n (%)
AST increased (500 mg BID, ≥G3): 0 n (%)
Abdominal distension (500 mg BID, ≥G3): 0 n (%)
Abdominal pain (500 mg BID, ≥G3): 0 n (%)
Abdominal pain upper (500 mg BID, ≥G3): 0 n (%)
Amylase increased (500 mg BID, ≥G3): 0 n (%)
Anemia (500 mg BID, ≥G3): 0 n (%)
Any AE related to study drug (500 mg BID, ≥G3): 1 (25.0) n (%)
Asthenia (500 mg BID, ≥G3): 0 n (%)
Blood creatinine increased (500 mg BID, ≥G3): 0 n (%)
Blood system disorders (500 mg BID, ≥G3): 0 n (%)
Blood triglycerides increased (500 mg BID, ≥G3): 0 n (%)
Blood urea increased (500 mg BID, ≥G3): 0 n (%)
Cardiac disorders (500 mg BID, ≥G3): 0 n (%)
Chest discomfort (500 mg BID, ≥G3): 0 n (%)
Constipation (500 mg BID, ≥G3): 0 n (%)
Decreased appetite (500 mg BID, ≥G3): 0 n (%)
Diarrhea (500 mg BID, ≥G3): 0 n (%)
Dizziness (500 mg BID, ≥G3): 0 n (%)
Erectile dysfunction (500 mg BID, ≥G3): 0 n (%)
Gastrointestinal disorders (500 mg BID, ≥G3): 0 n (%)
General disorders (500 mg BID, ≥G3): 0 n (%)
Gingival bleeding (500 mg BID, ≥G3): 0 n (%)
Granulocyte count increased (500 mg BID, ≥G3): 0 n (%)
Headache (500 mg BID, ≥G3): 0 n (%)
Hypoalbuminemia (500 mg BID, ≥G3): 0 n (%)
Infusion site pain (500 mg BID, ≥G3): 0 n (%)
Limb discomfort (500 mg BID, ≥G3): 0 n (%)
Metabolic disorders (500 mg BID, ≥G3): 0 n (%)
Musculoskeletal discomfort (500 mg BID, ≥G3): 0 n (%)
Musculoskeletal disorders (500 mg BID, ≥G3): 0 n (%)
Nausea (500 mg BID, ≥G3): 0 n (%)
Nervous system disorders (500 mg BID, ≥G3): 0 n (%)
Neutrophil count decreased (500 mg BID, ≥G3): 0 n (%)
Neutrophil count increased (500 mg BID, ≥G3): 0 n (%)
Palpitations (500 mg BID, ≥G3): 0 n (%)
Protein urine present (500 mg BID, ≥G3): 0 n (%)
Proteinuria (500 mg BID, ≥G3): 0 n (%)
Rash (500 mg BID, ≥G3): 0 n (%)
Renal & urinary disorders (500 mg BID, ≥G3): 0 n (%)
Renal failure (500 mg BID, ≥G3): 0 n (%)
Reproductive disorders (500 mg BID, ≥G3): 0 n (%)
Skin disorders (500 mg BID, ≥G3): 0 n (%)
Urinary occult blood positive (500 mg BID, ≥G3): 0 n (%)
Vomiting (500 mg BID, ≥G3): 0 n (%)
WBC count decreased (500 mg BID, ≥G3): 0 n (%)
WBC count increased (500 mg BID, ≥G3): 0 n (%)
Infusion site pain (600 mg BID, ALL): 0 n (%)
WBC count increased (600 mg BID, ALL): 0 n (%)
ALT increased (600 mg BID, ≥G3): 0 n (%)
AST increased (600 mg BID, ≥G3): 0 n (%)
